Experimental data taken from US11708283B2, “Metal-chelating compositions and their use in methods of removing or inhibiting barium scale” (CORNELL UNIVERSITY, priority 2018, dated 2023).

Tests used:
[1] = Dissolution of barite ore in columns (ligand efficiency, GFAAS); details: ~48 mM ligand, soak 1 hour
[2] = Recovery and reuse of macropa for BaSO4 dissolution
Description: The capacity for recovery and reuse of macropa post-BaSO4 dissolution was assessed qualitatively. FIG. 7 schematically depicts a process for ligand recovery and reuse. A solution of macropa-dissolved BaSO4 was acidified to release the Ba^2+ from the ligand as BaSO4. After filtration of the precipitated BaSO4 and basification of the solution, the recovered ligand was successfully reused for another cycle of BaSO4 dissolution. More specifically, a sample of macropa-dissolved BaSO4 (9.66 mM macropa, 8.74 mM Ba(NO3)2, 26.04 mM Na2SO4) was acidified to pH 1 with concentrated HCl to protonate the ligand, inducing Ba^2+ decomplexation and precipitation as BaSO4. The macropa solution was isolated by filtration, basified to pH 8 with 2 M NaOH, and combined with another portion of BaSO4. Within 40 minutes, no visible precipitate remained in the vial, signaling that the recycled macropa dissolved all the BaSO4.
In other experiments, an initial solution of macropa-dissolved BaSO4 was prepared by stirring at 450 RPM a suspension containing BaSO4 (8.74 mM Ba(NO3)2; 26.04 mM Na2SO4), macropa (9.66 mM), and 2M NaOH (35 μL) in 1M NaHCO3 (326 μL). The final volume was 1035 μL and the pH was 8. […] The solution was adjusted to pH 1 (by litmus paper) by adding concentrated HCl (3 drops). The resultant suspension was stirred for 10 minutes and then filtered through a nylon syringe filter (0.22 μm). The syringe filter was rinsed with 0.1 M HCl (2×100 μL) to facilitate full recovery of the ligand. The pH of the filtrate was carefully adjusted back to pH 8 (by litmus paper) with 2 M NaOH. To this recovered solution of macropa was added another portion of BaSO4 (0.009 mmol BaNO3, 0.027 mmol Na2SO4). The suspension was stirred at 450 RPM and RT. The dissolution of BaSO4 was monitored visually until all of the BaSO4 was dissolved, marking the completion of a full cycle of ligand recovery and reuse. Another cycle was then initiated via the addition of concentrated HCl to the solution. A total of five cycles were performed and the time to full dissolution of BaSO4 was recorded. […] The precipitate may be attributed to a small amount of BaSO4 that remains undissolved as a consequence of ligand loss over time, which occurs because aliquots of the solution are removed to assess the pH during the recovery and reuse process.

[3] = Aqueous solubility of ligand (stock solution preparation); format: physicochemical; details: stock solution could not be prepared
Description: Stock solutions of macropa and macropaquin were prepared in H2O. […] The exact ligand concentrations were determined from the potentiometric titration curves with KOH. Protonation equilibria of macropa^2− and macropaquin^2− were determined by adding standardized KOH to a solution (20 mL) containing ligand (˜0.02 mmol), 0.1 M HCl (0.1 mmol), and 1 M KCl (1.9 mmol). The titration method employed a 0.1 mV/min drift limit with a maximum wait time of 90 sec between addition of base and measurement. At least 70 data points were collected over the pH range of 2.5-10.5 (macropa) or 2.5-11.3 (macropaquin). The protonation constants, defined in Eq. 1, were calculated from the average of at least 4 independent titrations using the appropriate software.

Row | Compound | ligand efficiency (percent of ligand saturated with Ba^2+) ([1]; pH 8, barite 3 g) | ligand efficiency (percent of ligand saturated with Ba^2+) ([1]; pH 11, barite 3 g) | time to complete dissolution of BaSO4 (initial solution) ([2]; 9.66 mM macropa, 8.74 mM Ba(NO3)2, 26.04 mM Na2SO4, pH 8) | time until no visible BaSO4 precipitate remained with recycled ligand ([2]; first reuse, pH 8) | efficacy on reuse four more times ([2]; ligand recovered and reused) | BaSO4 dissolution during the 4th and 5th cycles ([2]; recovery and reuse cycles) | aqueous solubility [3]
1 | O=C(O)c1cccc(CN2CCOCCOCCN(Cc3cccc(C(=O)O)n3)CCOCCOCC2)n1 [macropa, 6,6-((1,4,10,13-tetraoxa-7,16-diazacyclooctadecane-7,16-diyl)bis(methylene))dipicolinic acid] | 40% | 40% | 17 min | ≤ 40 min | negligible loss in efficacy or speed of dissolution | dissolution of most of the BaSO4 was rapidly achieved within the first hour | –
2 | O=S(=O)(O)c1ccc(O)c2nc(CN3CCOCCOCCN(Cc4ccc5c(S(=O)(=O)O)ccc(O)c5n4)CCOCCOCC3)ccc12 [macroquin-SO3, 2,2′-((1,4,10,13-tetraoxa-7,16-diazacyclooctadecane-7,16-diyl)bis(methylene))bis(8-hydroxyquinoline-5-sulfonic acid)] | – | – | – | – | – | – | poor aqueous solubility
